# Results published in the kinase profiling compilation of Christmann-Franck et al. (2016).
# How the values were obtained:
# Assay in all cases: radiometric filter-binding kinase assay, Kinase HotSpot
# Settings in all cases: compound 0.5 µM; ATP 10 µM
# AURKA (human) = AURKA (human) (UniProt O14965)
# AURKC (human) = AURKC (human) (UniProt Q9UQB9)
# CAMK2A (human) = CAMK2A (human) (UniProt Q9UQM7)
# CDC42BPA (human) = CDC42BPA (human) (UniProt Q5VT25)
# CDK2 CCNE1 (human) = CDK2 CCNE1 (human) (UniProt P24941+P24864)
# CDK4 CCND3 (human) = CDK4 CCND3 (human) (UniProt P30281+P11802)
# CDK5 CDK5R1 p25 (human) = CDK5 CDK5R1 p25 (human) (UniProt Q00535+Q15078)
# CSK (human) = CSK (human) (UniProt P41240)
# CSNK1D (human) = CSNK1D (human) (UniProt P48730)
# CSNK1G3 (human) = CSNK1G3 (human) (UniProt Q9Y6M4)
# DSTYK (human) = DSTYK (human) (UniProt Q6XUX3)
# EPHB1 (human) = EPHB1 (human) (UniProt P54762)
# EPHB2 (human) = EPHB2 (human) (UniProt P29323)
# FLT3 (human) = FLT3 (human) (UniProt P36888)
# GSG2 (human) = GSG2 (human) (UniProt Q8TF76)
# HIPK4 (human) = HIPK4 (human) (UniProt Q8NE63)
# INSR (human) = INSR (human) (UniProt P06213)
# ITK (human) = ITK (human) (UniProt Q08881)
# JAK3 JH1 JH2 (human) = JAK3 JH1 JH2 (human) (UniProt P52333)
# LIMK1 (human) = LIMK1 (human) (UniProt P53667)
# LRRK2 (human) = LRRK2 (human) (UniProt Q5S007)
# MAP3K8 (human) = MAP3K8 (human) (UniProt P41279)
# MAP3K9 (human) = MAP3K9 (human) (UniProt P80192)
# MAPK8 (human) = MAPK8 (human) (UniProt P45983)
# MARK1 (human) = MARK1 (human) (UniProt Q9P0L2)
# MARK3 (human) = MARK3 (human) (UniProt P27448)
# MATK (human) = MATK (human) (UniProt P42679)
# MELK (human) = MELK (human) (UniProt Q14680)
# MUSK (human) = MUSK (human) (UniProt O15146)
# NUAK1 (human) = NUAK1 (human) (UniProt O60285)
# PAK6 (human) = PAK6 (human) (UniProt Q9NQU5)
# PAK7 (human) = PAK7 (human) (UniProt Q9P286)
# PIM3 (human) = PIM3 (human) (UniProt Q86V86)
# PKN1 (human) = PKN1 (human) (UniProt Q16512)
# SGK3 (human) = SGK3 (human) (UniProt Q96BR1)
# STK10 (human) = STK10 (human) (UniProt O94804)
# STK17A (human) = STK17A (human) (UniProt Q9UEE5)
# TGFBR1 (human) = TGFBR1 (human) (UniProt P36897)
# ULK2 (human) = ULK2 (human) (UniProt Q8IYT8)
# MAP3K3 (human) = MAP3K3 (human) (UniProt Q99759)
# Sequence of PKN1 (human) (Q16512 whole entry, looked up): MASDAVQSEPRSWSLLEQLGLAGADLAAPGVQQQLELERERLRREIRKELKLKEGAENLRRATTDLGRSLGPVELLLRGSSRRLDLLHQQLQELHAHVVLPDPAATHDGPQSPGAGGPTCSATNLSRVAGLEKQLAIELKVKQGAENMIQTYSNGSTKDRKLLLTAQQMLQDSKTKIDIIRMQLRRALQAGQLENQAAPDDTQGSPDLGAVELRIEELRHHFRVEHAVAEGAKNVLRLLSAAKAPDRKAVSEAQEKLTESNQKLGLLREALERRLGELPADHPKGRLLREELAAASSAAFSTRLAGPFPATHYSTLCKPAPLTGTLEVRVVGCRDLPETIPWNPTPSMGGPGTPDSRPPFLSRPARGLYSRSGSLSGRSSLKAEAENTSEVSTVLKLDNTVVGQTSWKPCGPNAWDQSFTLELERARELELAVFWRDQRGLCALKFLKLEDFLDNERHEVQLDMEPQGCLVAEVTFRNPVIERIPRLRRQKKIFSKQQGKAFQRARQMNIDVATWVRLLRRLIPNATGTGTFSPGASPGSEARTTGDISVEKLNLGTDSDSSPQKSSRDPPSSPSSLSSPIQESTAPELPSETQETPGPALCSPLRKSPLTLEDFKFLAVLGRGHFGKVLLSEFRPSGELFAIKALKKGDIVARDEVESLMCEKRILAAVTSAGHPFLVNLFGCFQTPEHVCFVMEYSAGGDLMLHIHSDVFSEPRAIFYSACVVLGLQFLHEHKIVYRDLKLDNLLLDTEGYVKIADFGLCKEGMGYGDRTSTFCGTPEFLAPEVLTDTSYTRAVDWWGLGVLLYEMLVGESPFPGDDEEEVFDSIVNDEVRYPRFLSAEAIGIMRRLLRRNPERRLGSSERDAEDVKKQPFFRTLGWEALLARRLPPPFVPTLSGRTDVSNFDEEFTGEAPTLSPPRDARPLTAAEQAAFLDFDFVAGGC
# Sequence of ULK2 (human) (Q8IYT8 whole entry, looked up): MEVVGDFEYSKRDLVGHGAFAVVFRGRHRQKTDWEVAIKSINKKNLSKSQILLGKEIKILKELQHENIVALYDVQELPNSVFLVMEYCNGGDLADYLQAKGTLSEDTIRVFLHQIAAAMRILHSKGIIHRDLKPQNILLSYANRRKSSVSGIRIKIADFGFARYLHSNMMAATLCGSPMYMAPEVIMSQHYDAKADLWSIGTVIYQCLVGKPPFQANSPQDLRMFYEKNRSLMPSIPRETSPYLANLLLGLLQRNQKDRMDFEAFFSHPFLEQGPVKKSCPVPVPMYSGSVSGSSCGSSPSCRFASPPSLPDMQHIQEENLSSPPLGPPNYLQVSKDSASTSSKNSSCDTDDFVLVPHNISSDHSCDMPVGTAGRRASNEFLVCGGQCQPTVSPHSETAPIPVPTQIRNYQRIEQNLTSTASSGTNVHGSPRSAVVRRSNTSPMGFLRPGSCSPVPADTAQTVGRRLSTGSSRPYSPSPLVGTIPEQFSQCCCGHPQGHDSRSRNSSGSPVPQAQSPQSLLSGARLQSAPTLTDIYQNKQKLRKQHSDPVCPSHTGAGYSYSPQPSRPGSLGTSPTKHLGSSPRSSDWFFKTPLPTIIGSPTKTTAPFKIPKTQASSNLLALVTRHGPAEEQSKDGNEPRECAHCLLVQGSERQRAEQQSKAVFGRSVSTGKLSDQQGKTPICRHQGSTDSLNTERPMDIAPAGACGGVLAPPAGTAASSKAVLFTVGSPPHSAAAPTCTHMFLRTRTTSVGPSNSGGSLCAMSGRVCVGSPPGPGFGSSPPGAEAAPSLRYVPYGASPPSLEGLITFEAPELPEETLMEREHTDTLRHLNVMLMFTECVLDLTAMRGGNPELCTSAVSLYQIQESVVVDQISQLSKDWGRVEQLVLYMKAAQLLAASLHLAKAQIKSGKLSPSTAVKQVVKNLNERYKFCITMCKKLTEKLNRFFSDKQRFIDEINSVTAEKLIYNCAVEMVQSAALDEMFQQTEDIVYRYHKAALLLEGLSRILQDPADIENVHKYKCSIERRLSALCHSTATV
# Sequence of CDK5 CDK5R1 p25 (human) (Q00535 whole entry, looked up): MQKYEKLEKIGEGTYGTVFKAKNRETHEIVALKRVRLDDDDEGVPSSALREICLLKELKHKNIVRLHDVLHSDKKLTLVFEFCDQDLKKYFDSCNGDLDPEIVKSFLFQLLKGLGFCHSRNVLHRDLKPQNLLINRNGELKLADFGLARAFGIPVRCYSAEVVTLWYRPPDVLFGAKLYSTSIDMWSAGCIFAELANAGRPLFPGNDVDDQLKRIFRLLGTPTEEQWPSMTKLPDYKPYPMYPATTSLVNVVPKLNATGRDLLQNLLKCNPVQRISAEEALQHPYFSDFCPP
# Sequence of CDK5 CDK5R1 p25 (human) (Q15078 whole entry, looked up): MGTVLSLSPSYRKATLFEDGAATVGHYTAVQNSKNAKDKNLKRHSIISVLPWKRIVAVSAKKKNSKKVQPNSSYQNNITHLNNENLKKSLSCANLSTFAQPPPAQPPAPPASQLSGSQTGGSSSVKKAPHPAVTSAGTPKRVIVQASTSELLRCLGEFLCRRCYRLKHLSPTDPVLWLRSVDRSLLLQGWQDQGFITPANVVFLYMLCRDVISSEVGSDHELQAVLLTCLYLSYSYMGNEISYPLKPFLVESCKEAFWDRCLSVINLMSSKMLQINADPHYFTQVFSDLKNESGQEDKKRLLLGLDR
# Sequence of MUSK (human) (O15146 whole entry, looked up): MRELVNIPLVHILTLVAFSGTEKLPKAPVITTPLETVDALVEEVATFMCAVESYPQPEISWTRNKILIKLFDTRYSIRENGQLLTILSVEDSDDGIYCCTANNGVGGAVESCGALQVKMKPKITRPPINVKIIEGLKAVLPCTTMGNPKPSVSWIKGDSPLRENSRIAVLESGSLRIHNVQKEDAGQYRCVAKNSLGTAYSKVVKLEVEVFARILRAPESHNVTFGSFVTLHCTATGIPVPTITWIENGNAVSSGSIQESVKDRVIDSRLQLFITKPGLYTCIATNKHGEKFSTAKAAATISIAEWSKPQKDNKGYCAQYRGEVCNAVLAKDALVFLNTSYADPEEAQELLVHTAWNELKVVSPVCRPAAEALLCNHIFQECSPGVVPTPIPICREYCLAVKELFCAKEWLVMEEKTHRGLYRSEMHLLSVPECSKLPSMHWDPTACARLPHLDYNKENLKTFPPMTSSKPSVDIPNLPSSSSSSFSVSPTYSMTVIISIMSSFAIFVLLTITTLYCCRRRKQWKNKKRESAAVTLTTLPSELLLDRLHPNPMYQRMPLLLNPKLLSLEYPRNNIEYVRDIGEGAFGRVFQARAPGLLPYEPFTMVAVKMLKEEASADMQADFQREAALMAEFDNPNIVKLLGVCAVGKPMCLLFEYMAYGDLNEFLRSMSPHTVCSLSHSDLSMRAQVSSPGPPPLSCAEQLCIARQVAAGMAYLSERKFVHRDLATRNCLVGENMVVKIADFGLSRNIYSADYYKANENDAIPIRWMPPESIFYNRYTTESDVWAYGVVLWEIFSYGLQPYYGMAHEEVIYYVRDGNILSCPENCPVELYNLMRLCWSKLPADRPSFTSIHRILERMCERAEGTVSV
# Sequence of INSR (human) (P06213 whole entry, looked up): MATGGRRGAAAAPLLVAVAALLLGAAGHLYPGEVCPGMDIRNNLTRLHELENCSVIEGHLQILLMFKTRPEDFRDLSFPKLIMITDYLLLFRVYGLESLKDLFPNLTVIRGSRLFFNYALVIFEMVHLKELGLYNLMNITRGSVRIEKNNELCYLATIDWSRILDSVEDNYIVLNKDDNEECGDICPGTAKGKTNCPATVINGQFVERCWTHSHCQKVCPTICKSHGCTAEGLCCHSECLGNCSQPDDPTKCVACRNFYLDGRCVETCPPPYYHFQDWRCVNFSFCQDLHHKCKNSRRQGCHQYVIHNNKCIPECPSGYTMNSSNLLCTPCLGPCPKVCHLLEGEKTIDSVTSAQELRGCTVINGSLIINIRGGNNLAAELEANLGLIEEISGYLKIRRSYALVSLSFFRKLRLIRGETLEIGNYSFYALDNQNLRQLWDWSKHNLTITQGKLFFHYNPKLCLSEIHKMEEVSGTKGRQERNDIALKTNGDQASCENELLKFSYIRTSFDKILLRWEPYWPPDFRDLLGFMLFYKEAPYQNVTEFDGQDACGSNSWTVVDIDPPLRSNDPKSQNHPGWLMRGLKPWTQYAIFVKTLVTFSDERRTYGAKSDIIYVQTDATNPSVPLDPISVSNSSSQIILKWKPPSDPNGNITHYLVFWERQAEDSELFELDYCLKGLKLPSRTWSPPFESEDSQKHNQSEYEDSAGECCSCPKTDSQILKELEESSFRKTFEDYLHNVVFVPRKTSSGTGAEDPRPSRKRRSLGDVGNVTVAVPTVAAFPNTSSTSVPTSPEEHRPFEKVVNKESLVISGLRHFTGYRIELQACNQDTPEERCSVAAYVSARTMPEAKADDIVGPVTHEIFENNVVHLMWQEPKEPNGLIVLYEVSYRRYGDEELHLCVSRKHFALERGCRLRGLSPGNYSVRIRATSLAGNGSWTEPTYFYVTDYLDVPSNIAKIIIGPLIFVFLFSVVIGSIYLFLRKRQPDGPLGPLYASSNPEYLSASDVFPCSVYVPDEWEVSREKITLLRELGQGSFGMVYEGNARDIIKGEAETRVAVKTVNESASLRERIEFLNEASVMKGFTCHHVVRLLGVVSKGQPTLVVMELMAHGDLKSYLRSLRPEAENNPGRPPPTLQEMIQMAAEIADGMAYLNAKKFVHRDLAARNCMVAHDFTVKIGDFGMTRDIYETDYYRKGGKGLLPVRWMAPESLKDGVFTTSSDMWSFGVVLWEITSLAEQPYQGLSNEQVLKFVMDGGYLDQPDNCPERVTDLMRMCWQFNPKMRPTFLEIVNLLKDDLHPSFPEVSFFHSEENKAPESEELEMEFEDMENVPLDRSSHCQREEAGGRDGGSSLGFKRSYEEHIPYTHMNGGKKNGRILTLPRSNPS
Compound,residual activity (AURKA (human)),residual activity (AURKC (human)),residual activity (CAMK2A (human)),residual activity (CDC42BPA (human)),residual activity (CDK2 CCNE1 (human)),residual activity (CDK4 CCND3 (human)),residual activity (CDK5 CDK5R1 p25 (human)),residual activity (CSK (human)),residual activity (CSNK1D (human)),residual activity (CSNK1G3 (human)),residual activity (DSTYK (human)),residual activity (EPHB1 (human)),residual activity (EPHB2 (human)),residual activity (FLT3 (human)),residual activity (GSG2 (human)),residual activity (HIPK4 (human)),residual activity (INSR (human)),residual activity (ITK (human)),residual activity (JAK3 JH1 JH2 (human)),residual activity (LRRK2 (human)),other results
Oc1cccc(-c2nc(N3CCOCC3)c3oc4ncccc4c3n2)c1,91.9%,98.1%,93.7%,94.5%,85.5%,92.5%,77.9%,88.3%,91.3%,99.9%,96.1%,89.6%,88.6%,87.1%,90.3%,107%,98.6%,93.1%,99%,101%,residual activity (LIMK1 (human)): 93.7%; residual activity (MAP3K8 (human)): 99.2%; residual activity (MAP3K9 (human)): 103%; residual activity (MAPK8 (human)): 89.8%; residual activity (MARK1 (human)): 97.6%; residual activity (MARK3 (human)): 97.4%; residual activity (MATK (human)): 86.7%; residual activity (MELK (human)): 75.5%; residual activity (MUSK (human)): 87.8%; residual activity (NUAK1 (human)): 86.6%; residual activity (PAK6 (human)): 105%; residual activity (PAK7 (human)): 92.8%; residual activity (PIM3 (human)): 104%; residual activity (PKN1 (human)): 101%; residual activity (SGK3 (human)): 95.8%; residual activity (STK10 (human)): 92.1%; residual activity (STK17A (human)): 93.8%; residual activity (TGFBR1 (human)): 95%; residual activity (ULK2 (human)): 106%
CC(=O)c1ccc(N2CCOCC2)cc1O,132%,104%,104%,100%,94.8%,96.4%,99.7%,99.1%,100%,101%,95.3%,103%,82.5%,102%,79.6%,101%,94%,97%,104%,96.1%,residual activity (LIMK1 (human)): 93.6%; residual activity (MAP3K3 (human)): 108%; residual activity (MAP3K8 (human)): 99.4%; residual activity (MAP3K9 (human)): 112%; residual activity (MAPK8 (human)): 96.8%; residual activity (MARK1 (human)): 96.7%; residual activity (MARK3 (human)): 108%; residual activity (MATK (human)): 92.1%; residual activity (MELK (human)): 102%; residual activity (MUSK (human)): 93.9%; residual activity (NUAK1 (human)): 92.8%; residual activity (PAK6 (human)): 93.7%; residual activity (PAK7 (human)): 102%; residual activity (PIM3 (human)): 115%; residual activity (PKN1 (human)): 108%; residual activity (SGK3 (human)): 105%; residual activity (STK10 (human)): 101%; residual activity (STK17A (human)): 95.9%; residual activity (TGFBR1 (human)): 96.6%; residual activity (ULK2 (human)): 114%
O=C1NC(=O)C(c2cn(CCCn3ccnc3)c3ccccc23)=C1Nc1ccccc1,78.8%,89.8%,95.5%,95.2%,81.8%,91%,86%,110%,102%,110%,102%,102%,98.4%,8.21%,95.8%,90.7%,84.4%,93.9%,7.97%,43.6%,residual activity (LIMK1 (human)): 83.8%; residual activity (MAP3K3 (human)): 95.8%; residual activity (MAP3K8 (human)): 100%; residual activity (MAP3K9 (human)): 30.6%; residual activity (MAPK8 (human)): 99.6%; residual activity (MARK1 (human)): 93.6%; residual activity (MARK3 (human)): 92.1%; residual activity (MATK (human)): 89.8%; residual activity (MELK (human)): 101%; residual activity (MUSK (human)): 51.6%; residual activity (NUAK1 (human)): 70.6%; residual activity (PAK6 (human)): 105%; residual activity (PAK7 (human)): 94.2%; residual activity (PIM3 (human)): 97.5%; residual activity (PKN1 (human)): 22.7%; residual activity (SGK3 (human)): 89.9%; residual activity (STK10 (human)): 11.5%; residual activity (STK17A (human)): 93.1%; residual activity (TGFBR1 (human)): 101%; residual activity (ULK2 (human)): 91.7%
O=C1Nc2ccc(Cl)cc2/C1=C/c1cc(Cl)c(O)c(Cl)c1,64.2%,78.6%,92.9%,96.1%,90%,94.8%,82.6%,85%,89.6%,93%,89.6%,91%,90.9%,26.5%,8.65%,88.4%,99.2%,91.8%,100%,11%,residual activity (LIMK1 (human)): 83.7%; residual activity (MAP3K3 (human)): 101%; residual activity (MAP3K8 (human)): 93.1%; residual activity (MAP3K9 (human)): 102%; residual activity (MAPK8 (human)): 82.8%; residual activity (MARK1 (human)): 89.5%; residual activity (MARK3 (human)): 81.1%; residual activity (MATK (human)): 82.2%; residual activity (MELK (human)): 83.6%; residual activity (MUSK (human)): 65.5%; residual activity (NUAK1 (human)): 72.5%; residual activity (PAK6 (human)): 97%; residual activity (PAK7 (human)): 91.5%; residual activity (PIM3 (human)): 14.5%; residual activity (PKN1 (human)): 93%; residual activity (SGK3 (human)): 98.6%; residual activity (STK10 (human)): 77.1%; residual activity (STK17A (human)): 78.9%; residual activity (TGFBR1 (human)): 102%; residual activity (ULK2 (human)): 101%
Cc1ccc(Nc2nccc(N(C)c3ccc4c(C)n(C)nc4c3)n2)cc1S(N)(=O)=O,38.4%,70.9%,95.6%,85.4%,96.4%,96%,95.1%,93%,95.4%,97.1%,94.3%,92.2%,91.9%,40.7%,90.4%,109%,107%,115%,95.3%,109%,residual activity (MAP3K3 (human)): 112%; residual activity (MAP3K8 (human)): 95.2%; residual activity (MAP3K9 (human)): 10.6%; residual activity (MARK1 (human)): 99.9%; residual activity (MARK3 (human)): 96.6%; residual activity (MATK (human)): 104%; residual activity (MELK (human)): 87.5%; residual activity (MUSK (human)): 95.1%; residual activity (NUAK1 (human)): 53.4%; residual activity (PAK6 (human)): 105%; residual activity (PAK7 (human)): 95.4%; residual activity (PIM3 (human)): 81.6%; residual activity (PKN1 (human)): 102%; residual activity (SGK3 (human)): 97.5%; residual activity (STK10 (human)): 50.1%; residual activity (STK17A (human)): 95.9%; residual activity (TGFBR1 (human)): 103%; residual activity (ULK2 (human)): 102%
